The values that follow are results of earlier work, collected in patent US20230219912A1, “HALOGENATED BENZOTHIADIAZINES FOR THE TREATMENT OF CANCER” (BOARD OF REGENTS OF THE UNIVERSITY OF NEBRASKA, priority 2020, published 2023).

Molecules are shown by their SMILES. pIC50: −log10 of the molar value.

One data set addresses T1, TTK (Homo sapiens, UniProt P33981).
T1 sequence (P33981 1-857): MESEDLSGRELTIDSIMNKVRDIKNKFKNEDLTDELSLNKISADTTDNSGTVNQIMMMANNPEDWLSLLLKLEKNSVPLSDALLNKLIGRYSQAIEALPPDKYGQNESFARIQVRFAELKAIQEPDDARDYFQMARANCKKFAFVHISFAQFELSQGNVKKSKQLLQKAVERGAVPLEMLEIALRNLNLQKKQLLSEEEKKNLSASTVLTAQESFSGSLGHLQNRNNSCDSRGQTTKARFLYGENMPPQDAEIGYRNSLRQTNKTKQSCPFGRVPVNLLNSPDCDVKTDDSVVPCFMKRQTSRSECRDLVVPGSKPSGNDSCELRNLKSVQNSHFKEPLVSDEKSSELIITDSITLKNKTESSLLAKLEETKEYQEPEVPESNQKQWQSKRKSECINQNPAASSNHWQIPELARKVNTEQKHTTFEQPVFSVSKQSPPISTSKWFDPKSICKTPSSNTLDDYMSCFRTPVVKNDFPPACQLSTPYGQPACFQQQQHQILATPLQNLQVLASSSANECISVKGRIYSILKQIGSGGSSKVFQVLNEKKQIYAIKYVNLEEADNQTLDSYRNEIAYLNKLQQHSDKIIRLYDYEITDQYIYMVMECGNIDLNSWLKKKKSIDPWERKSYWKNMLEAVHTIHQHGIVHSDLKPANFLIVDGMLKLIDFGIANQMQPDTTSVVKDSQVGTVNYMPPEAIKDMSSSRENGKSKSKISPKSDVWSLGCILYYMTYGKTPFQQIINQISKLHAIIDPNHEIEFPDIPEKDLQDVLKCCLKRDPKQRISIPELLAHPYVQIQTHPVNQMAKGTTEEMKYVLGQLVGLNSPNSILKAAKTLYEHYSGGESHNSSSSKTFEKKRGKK
Conditions: 100 μM; cited from earlier work.

Data set [1] deals with T2, Mitochondrial respiratory complex II (CII) (Rattus norvegicus, UniProt P21913+Q641Z9+Q6PCT8+Q920L2).
T2 construct: host or cells: rat heart mitochondria
Conditions: rat heart mitochondria, literature; cited from earlier work.

T2 sequence (Q920L2 35-656): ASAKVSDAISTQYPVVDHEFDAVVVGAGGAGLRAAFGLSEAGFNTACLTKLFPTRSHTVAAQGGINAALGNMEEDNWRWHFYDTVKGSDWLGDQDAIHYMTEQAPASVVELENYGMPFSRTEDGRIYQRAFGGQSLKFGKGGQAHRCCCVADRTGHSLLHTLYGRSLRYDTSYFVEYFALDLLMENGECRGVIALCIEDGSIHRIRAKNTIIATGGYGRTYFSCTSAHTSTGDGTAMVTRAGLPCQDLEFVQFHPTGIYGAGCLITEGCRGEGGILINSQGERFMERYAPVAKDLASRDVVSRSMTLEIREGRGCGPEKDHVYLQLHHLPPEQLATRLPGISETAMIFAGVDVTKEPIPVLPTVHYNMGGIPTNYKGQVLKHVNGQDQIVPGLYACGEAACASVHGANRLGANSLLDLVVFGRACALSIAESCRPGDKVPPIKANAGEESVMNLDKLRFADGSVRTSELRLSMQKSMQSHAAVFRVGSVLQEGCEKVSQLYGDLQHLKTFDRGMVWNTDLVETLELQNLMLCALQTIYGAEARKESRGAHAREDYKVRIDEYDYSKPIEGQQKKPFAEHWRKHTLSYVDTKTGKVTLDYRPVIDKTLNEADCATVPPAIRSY
T2 sequence (P21913 31-282): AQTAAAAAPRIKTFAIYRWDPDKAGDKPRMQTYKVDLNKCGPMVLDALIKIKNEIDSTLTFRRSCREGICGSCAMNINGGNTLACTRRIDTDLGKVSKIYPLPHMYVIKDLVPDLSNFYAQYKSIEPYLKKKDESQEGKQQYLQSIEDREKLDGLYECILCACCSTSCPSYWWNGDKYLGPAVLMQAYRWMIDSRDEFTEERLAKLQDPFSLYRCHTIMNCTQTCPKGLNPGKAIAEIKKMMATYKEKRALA
T2 sequence (Q641Z9 30-169 limits assumed): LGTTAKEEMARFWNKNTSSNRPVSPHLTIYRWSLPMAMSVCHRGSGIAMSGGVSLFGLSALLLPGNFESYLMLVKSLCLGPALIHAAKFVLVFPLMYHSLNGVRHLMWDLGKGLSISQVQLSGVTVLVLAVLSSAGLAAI
T2 sequence (Q6PCT8 57-159): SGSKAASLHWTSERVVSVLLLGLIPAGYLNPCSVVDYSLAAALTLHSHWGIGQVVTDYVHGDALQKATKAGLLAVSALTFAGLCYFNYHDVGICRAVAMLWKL

Take `CC1=Nc2ccc(Cl)cc2S(=O)(=O)N1` [Diazoxide, 7-chloro-3-methyl-2H-1,2,4-benzothiadiazine 1,1-dioxide, reference compound]: at TTK, the “inhibition of TTK” value is listed as 15%. In data set [1], the pIC50 is 4.49.
